Key:
Assay type in all cases: cell-based
HSP70 protein level [1] = experiment: HSP70 ELISA (Enzo kit), normal human dermal fibroblasts, 24 h treatment; details: 0.01%, HDF cells, FIG. 4
Protocol: (§1) Normal human dermal fibroblasts (Cascade Biologics) were seeded into four wells of a six well plate (5.0×10^5 cells/well) and cultured overnight. The following day, cells were replenished with fresh media and test compositions were added. The test compositions including their control for each formulation: […]
(§2) Following 24 hours of treatment, the cells were lysed and the HSP70 protein level was measured using an ELISA kit (available from Enzo Life Sciences). Cells were lysed using the lysis buffer provided with the kit. The amount of proteins for each sample was calculated using the standard curve.
The assay was performed in triplicate for each sample and the values represent mean±S.D. (standard deviation).

HSP70 protein level [2] = experiment: HSP70 ELISA (Abcam kit), full thickness human 3D skin cultures (MatTek), 24 h treatment; details: 1% by weight, skin 3-D tissues, FIG. 6
Protocol: A series of experiments was conducted to assess the effects of various treatments with HSP70 inducers on full thickness 3D skin cultures. Human 3D skin (MatTek, Mass.) were cultured following the manufacturer's instructions overnight. The following day, tissues were replenished with fresh media and then compositions comprising various potential actives were added. Following 24 hours of treatment, the tissues were lysed and the HSP70 protein level was measured using an ELISA kit (available from Abcam). The amount of the proteins was calculated according to the standard curve. For these measurements, the test materials were formulated in control at 1% by weight of the composition or at 0.04% by weight of the composition (Arnica montana, rosemary, black cohosh, turmeric, chamomile, aloe, horse chestnut, linseed, grapeseed, argan oil, gromwell, marjoram, sage, lauric acid, butyric acid) or they were formulated in control at 0.04% by weight of the composition (licorice, tetrahydrocurcumin (THC), olive leaf, milk thistle, glutamate).
The results are shown in FIG. 6 as the measured amount of HSP70 proteins/μg total protein for each sample. Samples labeled with “*” indicate a p value compared to the control of less than 0.05.

HSP70 protein level [3] = experiment: HSP70 ELISA (Abcam kit), normal human dermal fibroblasts, 24 h treatment; details: for stimulation of HSP70 protein level as compared to control: HDF cells, FIG. 5; for HSP70 induction value (Control = 1): normal human dermal fibroblasts, FIG. 3
Protocol: Normal human dermal fibroblasts were cultured in 6-well tissue culture treated plates. Cells were treated with test material (agent/compound) at the concentrations indicated, or with respective vehicle control diluted in growth medium, for 24 hours in a humidified 37° C. incubator with 5% CO2. After incubation, growth medium from each plate was removed and cells were lysed. HSP70 protein level in the cells was determined by a commercially available ELISA kit (Abcam, Cambridge, Mass.). In FIG. 3, Control induction value=1; shikonin (1 μM concentration) induction value=1.7; Arnica Montana (0.003% concentration) induction value=1.86; resveratrol (0.003% concentration) induction value=1.47; and G. T. polyphenol (0.003% concentration) induction value=1.24.
as §1, with “Similar experimentation on other HSP70 inducers was performed using an HSP70 ELISA kit (available from Abcam; cat. # ab133060). Briefly, normal” for “Normal”
as §2, with “The active ingredient was formulated in the ethanol:water control. Following” for “Following”, “Abcam).” for “Enzo Life Sciences).”
The assay was performed in triplicate for each sample and the values represent mean±S.D. (standard deviation). Samples labeled with “*” indicate a p value compared to the control of less than 0.05.

Compound | stimulation of HSP70 protein level as compared to control (HSP70 protein level [3]; 0.003%) [%] | HSP70 induction value (Control = 1) (HSP70 protein level [3]; 0.003%) | also measured
C=C(C)[C@@H]1CCC(C)=C[C@H]1c1c(O)cc(CCCCC)cc1O [CBD, cannabidiol] |  |  | stimulation of HSP70 protein level compared to its control (HSP70 protein level [1]): 189%
CCCC(=O)O [butyric acid] |  |  | stimulation of HSP70 protein levels as compared to control (HSP70 protein level [2]): 248%
Oc1ccc(/C=C/c2cc(O)cc(O)c2)cc1 [resveratrol, trans-3,5,4′-trihydroxystilbene] | 147 | 1.47 | 
CC(C)=CC[C@@H](O)C1=CC(=O)c2c(O)ccc(O)c2C1=O [shikonin] |  |  | stimulation of HSP70 protein level as compared to control (HSP70 protein level [3]; 1 μM): 170%; HSP70 induction value (Control = 1) (HSP70 protein level [3]; 1 μM): 1.7
epigallocatechin-3-gallate [G. T. polyphenol] | 124 | 1.24 | 

— US20190369119A1, “Protein Biomarkers for Identifying and Treating Aging Skin and Skin Conditions” (priority 2018, published 2019)
